Results as given in patent publication US5484803A, “Transcutaneous in vivo activation of photosensitive agents in blood” (priority 1995, dated 1996).
Where “and” joins values, the source holds several entries; their conditions need not be identical. Equal entries are not always repeated.

Key:
skin = test: Skin changes and general behavior after treatment (Example 5 and preceding examples); type: in vivo, mice; details: maximum observation period 2 weeks
[1] = BPD concentration in plasma of mice injected with L1210 cells; type: in vivo, Balb/c mice; details: for BPD Concentration in Plasma: Balb/c mice injected with L1210 cells; for BPD Concentration in Plasma, % of dark control: L1210
Method: (§1) Determination of BPD Concentration in Plasma: Plasma samples were obtained by centrifugation of blood collected from mice and stored frozen at -20° C. until assessment. The concentration of BPD in the samples was determined by fluorometry using a Jasco Model FP-770 (Japan Spectroscopic Co.) spectrofluorometer and a microcuvette (Far UV Quartz Cell, Starna Cells Inc.). Excitation and emission wavelengths were 439 and 699 nm, respectively. Plasma samples were diluted 20-fold with PBS containing 1% Triton® X-100 immediately before fluorescence was determined. BPD standards were prepared in 5% mouse plasma in PBS with 1% Triton® X-100. Under these conditions the relationship between the concentration of BPD and units of fluorescence was linear (correlation coefficient >0.99) for concentrations between 0.1 ng/ml and 1 μg/ml. The limit of detection was below 0.1 ng/ml sample which corresponded to 2 ng/ml plasma. […] The 699 nm fluorescence peak of BPD was virtually free from any interference.
(§2) Male mature DBA/2 and Balb/c mice were injected intravenously with P815 and L1210 cells, respectively, preincubated for 1 hour with BPD (liposomal) at 100 ng/ml. Immediately before animal injection, an additional 2 μg of BPD was added to the syringes containing cells. […] One group of mice (shaved and depilated) was exposed immediately to red light (600-900 nm) in the light box for 1.5 hours (162 J/cm^2); the other group was kept in the dark as the control.
(§3) Immediately after exposure to light, blood samples were obtained by a heart puncture under halothane anesthesia. The concentration of BPD in plasma of light-exposed and control mice was determined by fluorescence. The number of clonogenic tumor cells in mouse blood was determined by culturing blood samples in culture medium supplemented with 10% bovine serum, using a limiting dilution assay protocol.

[2] = BPD concentration in plasma of mice injected with P815 cells; type: in vivo, DBA/2 mice; details: for BPD in Plasma: DBA/2 mice injected with P815 cells; for BPD in Plasma, % of dark control: P815
Method: as §1, §2, §3

[3] = Transcutaneous activation: photodegradation of BPD in plasma in vivo; parameters: species or system mice; details: for BPD in Plasma: individual values; for photodegraded BPD, Dose / Photodegraded BPD: in vivo
Description: The light box was custom built at a workshop at the University of British Columbia. It was composed of two layers of 14 75 W tungsten-halogen reflector bulbs (General Electric), which illuminated the treatment area from the top and from the bottom. Light was filtered by 1) a set of filters comprising yellow and red plastic films which absorbed most of the light at wavelengths shorter than 600 nm and 2) 15 mm thick water filters which absorbed light above 900 nm. Cooling was provided by a steady flow of cold water in the water filters and by a set of 5 fans. The light intensity was measured by an IL 1350 Photometer (International Light).
The intensity of light delivered by the top and bottom sets of bulbs was not uniform. The bottom set delivered 33-40 mW/cm^2 as measured at floor level of the exposure chamber, while the top set delivered 27-33 mW/cm^2 as measured at the skin surface of the backs of the animals. The range described resulted from inconsistent influence at the horizontal plane of irradiation. In addition, mice moved about during light exposure, so that at various times different parts of their skin received different amounts of light. Therefore, the doses delivered to the surface of mice skin must be approximated and the calculations have been based on an intensity of 30 mW/cm^2.
as §1
Fourteen mice (weight 22±1 g) were used in this study. Twelve mice were injected with 20 μg (0.9 mg/kg) of liposomal BPD (in 200 μl) and kept in the dark for 1 hour before exposure to light. The mice each were exposed to light for 30 min, 1 hour or 1.5 hours, which delivered light doses to the skin surface of 54, 108 and 162 J/cm^2, respectively. Immediately after light exposure, blood samples were obtained. At the corresponding times, blood samples were obtained from two mice injected with BPD, but not exposed to light. Two additional mice were tested one hour after injection.
The aim of this study was to determine light penetration of the tissues to activate BPD. It was assumed that the substantial photodegradation of BPD in blood would represent substantial activation of BPD.
The BPD plasma concentration was then determined by fluorescence. The concentrations of unchanged BPD in the plasma of exposed and unexposed control mice were compared.

[4] = 1 1/2 h - C, no light, 2 1/2 h post injection, 0.9 mg/kg, 150 min
[5] = 1 1/2 h light, 162 J/cm^2, 2 1/2 h post injection, 0.9 mg/kg, 150 min
[6] = 30 min - C, no light, 1 1/2 h post injection, 0.9 mg/kg, 90 min
[7] = 30 min light, 54 J/cm^2, 1 1/2 h post injection, 0.9 mg/kg, 90 min

With “benzoprophyrin derivative monoacid ring A [BPD]” the “skin photosensitivity and change in behavior” value (skin) was “neither skin photosensitivity nor change in the behavior of animals were observed”, the Percent photodegraded ([1]; Balb/c, L1210, 162 J/cm^2) was 59% and the “BPD Concentration in Plasma” value ([1]; Dark control) was 126.45 ng/mL. The “BPD Concentration in Plasma, % of dark control” value ([1]; Dark control) was 100%, the “BPD Concentration in Plasma” value ([1]; Light exposed (162 J/cm^2)) was 52.23 ng/mL and the “BPD Concentration in Plasma, % of dark control” value ([1]; Light exposed (162 J/cm^2)) was 41%. The Percent photodegraded ([2]; DBA/2, P815, 162 J/cm^2) was 38%, the “BPD in Plasma” value ([2]; Dark control) was 94.09 ng/mL and the “BPD in Plasma, % of dark control” value ([2]; Dark control) was 100%. The “BPD in Plasma” value ([2]; Light exposed (162 J/cm^2)) was 58.14 ng/mL, the “BPD in Plasma, % of dark control” value ([2]; Light exposed (162 J/cm^2)) was 62% and the “BPD in Plasma, Mean ± SD” value ([3]; 0 h - C, no light, 1 h post injection, 0.9 mg/kg) was 1.243 ± 0.262 µg/mL. The “BPD in Plasma” value ([3]; 0 h - C, no light, 1 h post injection, 0.9 mg/kg, 60 min) was 1.428 µg/mL and 1.058 µg/mL, the “BPD in Plasma, Mean ± SD” value [3, 4] was 0.690 ± 0.048 µg/mL and the “BPD in Plasma” value [3, 4] was 0.724 µg/mL and 0.656 µg/mL. The “BPD in Plasma, Mean ± SD” value [3, 5] was 0.168 ± 0.033 µg/mL, the “BPD in Plasma” value [3, 5] was 0.191 µg/mL and 0.145 µg/mL and the “BPD in Plasma, Mean ± SD” value [3, 6] was 0.930 ± 0.441 µg/mL. The “BPD in Plasma” value [3, 6] was 0.618 µg/mL and 1.242 µg/mL, the “BPD in Plasma, Mean ± SD” value [3, 7] was 0.596 ± 0.042 µg/mL and the “BPD in Plasma” value [3, 7] was 0.566 µg/mL and 0.626 µg/mL. The “BPD in Plasma, Mean ± SD” value ([3]; 1 h - C, no light, 2 h post injection, 0.9 mg/kg) was 0.944 ± 0.421 µg/mL, the “BPD in Plasma” value ([3]; 1 h - C, no light, 2 h post injection, 0.9 mg/kg, 120 min) was 0.646 µg/mL and 1.242 µg/mL and the “BPD in Plasma, Mean ± SD” value ([3]; 1 h light, 108 J/cm^2, 2 h post injection, 0.9 mg/kg) was 0.301 ± 0.061 µg/mL. The “BPD in Plasma” value ([3]; 1 h light, 108 J/cm^2, 2 h post injection, 0.9 mg/kg, 120 min) was 0.258 µg/mL and 0.344 µg/mL, the “photodegraded BPD, Dose” value ([3]; 54 J/cm^2) was 0.334 µg/mL and the “Photodegraded BPD” value ([3]; 54 J/cm^2, 0.9 mg/kg) was 36%. The “photodegraded BPD, Dose” value ([3]; 108 J/cm^2) was 0.643 µg/mL, the “Photodegraded BPD” value ([3]; 108 J/cm^2, 0.9 mg/kg) was 68% and the “photodegraded BPD, Dose” value ([3]; 162 J/cm^2) was 0.522 µg/mL. The “Photodegraded BPD” value ([3]; 162 J/cm^2, 0.9 mg/kg) was 76%, the “BPD photodegraded in blood in vivo” value ([3]; light doses of 54-162 J/cm^2, 0.9 mg/kg) was 36-76% and the “plasma concentrations of BPD at the beginning of exposure to light” value ([3]; present study, 0.9 mg/kg, 1 hour after injection) was “above 3 μg/ml”.
